{"source": "patent US20240343699A1", "about": "“DERIVATIVES OF SUBSTITUTED MORPHOLINES AND USES THEREOF” (Supernus Pharmaceuticals, Inc., priority 2023, published 2024)", "key": {"[1]": {"assay": "In vitro stability in human plasma", "format": "in vitro ADME", "details": "Human plasma, final concentration 2 μM", "description": "Test Article Solutions: COMPOUND A, COMPOUND B and COMPOUND C stock solutions at 10 mM were prepared in dimethyl sulfoxide (DMSO). Further dilution with DMSO was made to prepare 2.0 mM. The working solutions of 50 μM was prepared with 20% MeOH/water. […] Prior to use, the stock solutions were brought to room temperature and thoroughly mixed and prepared same as described above.\nIncubations were conducted in 96-well plate format. The time points defined for this study are 0, 5, 15, 30 and 60 minutes.\nAn appropriate volume of plasma from test species were added to a 96-deep well plate, and COMPOUND A, COMPOUND B and COMPOUND C working solution was spiked into the plasma in duplicate to achieve a final concentration of 2.0 μM. For positive controls, the rat plasma was spiked with enalapril, the dog plasma spiked with bisacodyl and the human plasma was spiked with propantheline. All spiked plasma sample plates were incubated in a water bath at 37° C. with shaking.\nAt the end of each time point, samples were immediately quenched with three volume of cold quenching solution.\nA study was conducted to examine the plasma stability. Test Compounds: COMPOUND D, COMPOUND E, and Viloxazine. Positive controls: Enalapril and Propantheline."}, "[2]": {"assay": "Metabolic stability in human intestinal homogenate", "format": "in vitro ADME", "details": "Human intestinal homogenates; for half-life at 1 μM / microsomal CLint at 1 μM: intestinal homogenate, pH 7.2; for microsomal CLint at 1 μM: read-out: CLint(mic.)", "description": "Incubation Buffer (PBK): 50 mM potassium phosphate buffer (PBK) was prepared from 1 M potassium phosphate buffer, pH 7.2. […] The dilution of 1 mM intermediate was prepared from 10 mM stock with 90% methanol/water, then […] working solutions were prepared by diluting the 1 mM intermediates with 50 mM PBK. […] Prior to use, the stock solutions were brought to room temperature and thoroughly mixed. […] Cofactors Solutions: the cofactor solution was made at 10 mM of NADPH (nicotinamide-adenine dinucleotide phosphate, reduced form) in 50 mM PBK buffer.\n(§1) The incubation was carried out in 96-well plates. The intestinal homogenate mixture solution was added to 96-well plates (80 μL/well) in duplicate. […] Reaction was initiated by adding cofactor solution at 10 µL/well. The plates were incubated at 37° C. in a water bath with shaking. […] The final organic solvent content in the incubation was ≤1%.\nAt specified time points, i.e., 5, 10, 20, 30 and 60 minutes, NCF60 (no cofactor at 60 min, without adding NADPH replaced with 50 mM PBK buffer) reaction was stopped by adding three volumes of stop solution. The time zero (To) samples were prepared by adding three volumes of stop solution to intestinal homogenate samples, followed by addition of test article or control, and cofactor solution 10 μL/well.\nSubsequently, 100 μL of supernatant was removed from each well, diluted with 100 μL pure water and analyzed by LC/MS/MS.\nA study was conducted to examine the metabolic stability. […] Positive controls: 7-hydroxycoumarin and Testosterone."}, "[3]": {"assay": "Metabolic stability in dog liver S9", "format": "in vitro ADME, Beagle dog", "details": "1 μM in Beagle Dog liver S9 fractions; for half-life at 1 μM / microsomal CLint at 1 μM: pH 7.2; for microsomal CLint at 1 μM: read-out: CLint(mic.)", "description": "Incubation Buffer (PBK): 50 mM potassium phosphate buffer was prepared from 1 M potassium phosphate buffer, pH 7.2. […] The dilution of […] was prepared by 90% methanol/10% DMSO, then 10 μM working solutions were prepared by diluting the 0.1 mM intermediates with 50 mM PBK. […] Prior to use, the stock solutions were brought to room temperature and thoroughly mixed. […] Cofactors Solutions: the mixture of cofactors solution was made at 10 mM of NADPH and 10 mM of UDPGA in PBK buffer.\nas §1, with “liver S9 working solutions were” for “intestinal homogenate mixture solution was”, “mixture” for “solution at”, “μL/well.” for “µL/well.”\nAt specified time points, i.e., 5, 10, 20, 30 and 60 minutes, NCF60 (without adding NADPH (Nicotinamide-adenine dinucleotide phosphate, reduced form) and UDPGA (Uridine 5′-diphosphoglucuronic acid trisodium salt) replaced with PBK buffer reaction was stopped by adding three volumes of stop solution. The time zero (To) samples were prepared by adding three volumes of stop solution to liver S9 samples, followed by addition of test article or control, and cofactor mixture solution 10 μL/well.\nSubsequently, 100 μL of supernatant.\nPositive controls: 7-ethoxycoumarin and 7-hydroxycoumarin."}, "hNav1.5": {"molecular_target": "T1, hNav1.5 (Homo sapiens, UniProt Q14524)", "T1 construct": "CYL6004QP2DR", "T1 sequence (Q14524 whole entry)": "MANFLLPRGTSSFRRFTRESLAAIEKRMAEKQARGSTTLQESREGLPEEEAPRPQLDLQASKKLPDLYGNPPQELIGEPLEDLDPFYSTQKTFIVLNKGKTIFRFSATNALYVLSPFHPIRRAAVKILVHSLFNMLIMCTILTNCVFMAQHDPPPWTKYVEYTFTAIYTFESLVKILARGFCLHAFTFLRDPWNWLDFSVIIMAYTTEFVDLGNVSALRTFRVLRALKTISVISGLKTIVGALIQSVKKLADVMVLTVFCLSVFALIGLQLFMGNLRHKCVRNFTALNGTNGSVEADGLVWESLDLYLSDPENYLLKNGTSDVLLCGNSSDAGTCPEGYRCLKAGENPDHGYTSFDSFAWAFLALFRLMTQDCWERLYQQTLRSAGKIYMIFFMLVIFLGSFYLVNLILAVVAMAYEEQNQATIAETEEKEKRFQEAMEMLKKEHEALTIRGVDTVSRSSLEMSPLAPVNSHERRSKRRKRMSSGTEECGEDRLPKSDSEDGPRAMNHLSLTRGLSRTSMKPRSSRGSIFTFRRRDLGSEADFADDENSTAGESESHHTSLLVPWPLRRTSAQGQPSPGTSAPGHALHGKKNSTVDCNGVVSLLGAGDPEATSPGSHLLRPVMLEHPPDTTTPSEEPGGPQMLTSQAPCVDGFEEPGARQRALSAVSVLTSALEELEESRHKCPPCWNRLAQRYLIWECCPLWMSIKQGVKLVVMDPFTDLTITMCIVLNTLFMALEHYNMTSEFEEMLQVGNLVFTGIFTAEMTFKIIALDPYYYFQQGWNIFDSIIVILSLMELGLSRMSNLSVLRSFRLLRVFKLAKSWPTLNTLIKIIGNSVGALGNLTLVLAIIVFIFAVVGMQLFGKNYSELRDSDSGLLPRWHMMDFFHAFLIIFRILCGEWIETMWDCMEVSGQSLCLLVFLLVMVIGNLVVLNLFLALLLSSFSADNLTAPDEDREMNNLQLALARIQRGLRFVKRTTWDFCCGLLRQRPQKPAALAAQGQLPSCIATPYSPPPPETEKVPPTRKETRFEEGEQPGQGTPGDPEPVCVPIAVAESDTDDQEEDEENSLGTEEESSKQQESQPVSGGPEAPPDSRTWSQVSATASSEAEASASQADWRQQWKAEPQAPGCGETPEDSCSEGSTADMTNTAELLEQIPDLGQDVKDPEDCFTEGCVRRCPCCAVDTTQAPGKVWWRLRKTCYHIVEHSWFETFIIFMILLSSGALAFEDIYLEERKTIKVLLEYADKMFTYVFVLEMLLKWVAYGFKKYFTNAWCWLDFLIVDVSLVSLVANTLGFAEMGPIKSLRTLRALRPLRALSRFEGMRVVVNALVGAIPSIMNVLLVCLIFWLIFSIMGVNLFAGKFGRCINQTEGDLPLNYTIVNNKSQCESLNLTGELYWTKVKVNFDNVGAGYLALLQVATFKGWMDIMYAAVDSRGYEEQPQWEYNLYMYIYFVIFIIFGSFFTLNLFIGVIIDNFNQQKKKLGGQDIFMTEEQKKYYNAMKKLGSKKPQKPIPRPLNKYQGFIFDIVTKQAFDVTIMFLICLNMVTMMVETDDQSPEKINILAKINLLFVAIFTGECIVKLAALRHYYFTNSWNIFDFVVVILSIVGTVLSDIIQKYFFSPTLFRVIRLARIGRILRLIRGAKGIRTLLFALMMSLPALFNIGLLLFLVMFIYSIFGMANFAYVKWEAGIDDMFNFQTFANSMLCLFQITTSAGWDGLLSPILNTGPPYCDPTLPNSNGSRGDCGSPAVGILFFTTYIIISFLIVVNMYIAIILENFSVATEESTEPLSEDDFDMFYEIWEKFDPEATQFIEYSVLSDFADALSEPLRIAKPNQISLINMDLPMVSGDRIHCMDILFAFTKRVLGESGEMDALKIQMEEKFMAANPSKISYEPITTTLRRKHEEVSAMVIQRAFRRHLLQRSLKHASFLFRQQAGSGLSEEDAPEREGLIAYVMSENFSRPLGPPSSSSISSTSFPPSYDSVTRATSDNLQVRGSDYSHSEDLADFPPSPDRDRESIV", "assay": "Nav1.5 human sodium ion channel cell based automated patch clamp assay (QPatch HT)", "details": "Antagonist", "description": "Electrophysiological assays were conducted to profile five compounds for activities on the ion channel target using the QPatch HT electrophysiological platform.\nCYL6004QP2DR Nav1.5 Human Sodium Ion Channel Cell Based Automated Patch Clamp Assay. Cells were held at −120 mV for 100 ms, stepped to −130 mV for 100 ms, and stepped back to −120 mV for 100 ms to measure the leak current. Na channels exist in a) resting or closed state at −120 mV, b) a transient open state that inactivates to c) inactivated state at −10 mV. Na current inhibition within 1-2 ms of channel opening at −10 mV is open channel inhibition (pulse 1). […] Pulse 1 and 2 are used to investigate drug binding to the open state and inactivated state of the Na channels, respectively. Each concentration of compound was applied for 5 minutes.\nCurrent amplitudes more than 200 pA at the control stage were analyzed. The amplitude of the current was calculated by measuring the difference between the peak inward current on stepping to −10 mV (i.e. peak of the current) and remaining current at the end of the step. The current was assessed in vehicle control conditions and then at the end of each five (5) minute compound application."}, "[4]": {"details": "Pulse 1 (open state), read-out: Estimated IC50 (Pulse 1)"}, "[5]": {"details": "Pulse 2 (inactivated state), read-out: Estimated IC50 (Pulse 2)"}}, "note": "Where two headings read alike, the source gives them in different places."}
{"smiles": "CCOc1ccccc1OCC1CN(C(=O)OC(C)OC(=O)[C@H](N)C(C)C)CCO1", "note": "(stereo partly drawn) [COMPOUND D]", "values": [{"measurement": "% Remaining at 60 min (Mean)", "setting": "[1]", "value": 77.1, "unit": "%"}, {"measurement": "% Remaining at 60 min", "setting": "[2]", "value": 0.00, "unit": "%"}, {"measurement": "half-life at 1 μM", "setting": "[2]", "value": 0.85, "unit": "min"}, {"measurement": "microsomal CLint at 1 μM", "setting": "[2]", "value": 1630, "unit": "µL/min/mg"}, {"measurement": "% Remaining at 60 min", "setting": "[3]", "value": 3.10, "unit": "%"}, {"measurement": "half-life at 1 μM", "setting": "[3]", "value": 12.6, "unit": "min"}, {"measurement": "microsomal CLint at 1 μM", "setting": "[3]", "value": 110, "unit": "µL/min/mg"}, {"measurement": "IC50", "setting": "hNav1.5; [4]", "value": "> 100", "unit": "µM"}, {"measurement": "IC50", "setting": "hNav1.5; [5]", "value": 14.1, "unit": "µM"}]}
{"smiles": "CCOc1ccccc1OCC1CN(C(=O)OC(OC(=O)[C@@H](N)C(C)C)C(C)C)CCO1", "note": "(stereo partly drawn) [COMPOUND E]", "values": [{"measurement": "% Remaining at 60 min (Mean)", "setting": "[1]", "value": 90.3, "unit": "%"}, {"measurement": "% Remaining at 60 min", "setting": "[2]", "value": 0.90, "unit": "%"}, {"measurement": "half-life at 1 μM", "setting": "[2]", "value": 10.8, "unit": "min"}, {"measurement": "microsomal CLint at 1 μM", "setting": "[2]", "value": 128, "unit": "µL/min/mg"}, {"measurement": "% Remaining at 60 min", "setting": "[3]", "value": 0.25, "unit": "%"}, {"measurement": "half-life at 1 μM", "setting": "[3]", "value": 8.3, "unit": "min"}, {"measurement": "microsomal CLint at 1 μM", "setting": "[3]", "value": 167, "unit": "µL/min/mg"}, {"measurement": "IC50", "setting": "hNav1.5; [4]", "value": 92.6, "unit": "µM"}, {"measurement": "IC50", "setting": "hNav1.5; [5]", "value": 5.7, "unit": "µM"}]}
